# Laboratory results reported in patent US11053218B2, “3-(1-oxoisoindolin-2-yl)piperidine-2,6-dione derivatives and uses thereof” (Novartis AG, priority 2017, dated 2021).
# Where a name gives a salt, the structure may show the parent alone.
# What was measured:
# [1] = molecular target: IKZF2 (Homo sapiens, UniProt Q96SW2+Q9UKS7); experiment: Prolabel quantification of IKZF2 protein levels in 293GT cells; format: cell-based; details: for inhibition at 10 µM: 24 h, read-out: IKZF2 % protein reduction at 10 μM, 24 h; for inhibition at 10 µM / DC50: 293GT cells; for DC50: Prolabel assay, read-out: IKZF2 EC50; for IKZF2 protein levels as compared to the control (DMSO): Prolabel assay in HEK293GT cells, bar graph
# [2] = molecular target: IKZF1 (Homo sapiens, UniProt Q13422+Q96SW2); experiment: Prolabel quantification of IKZF1 protein levels in 293GT cells; format: cell-based; details: Prolabel assay, read-out: IKZF1 EC50
# Chain of IKZF1 (Q13422 whole entry): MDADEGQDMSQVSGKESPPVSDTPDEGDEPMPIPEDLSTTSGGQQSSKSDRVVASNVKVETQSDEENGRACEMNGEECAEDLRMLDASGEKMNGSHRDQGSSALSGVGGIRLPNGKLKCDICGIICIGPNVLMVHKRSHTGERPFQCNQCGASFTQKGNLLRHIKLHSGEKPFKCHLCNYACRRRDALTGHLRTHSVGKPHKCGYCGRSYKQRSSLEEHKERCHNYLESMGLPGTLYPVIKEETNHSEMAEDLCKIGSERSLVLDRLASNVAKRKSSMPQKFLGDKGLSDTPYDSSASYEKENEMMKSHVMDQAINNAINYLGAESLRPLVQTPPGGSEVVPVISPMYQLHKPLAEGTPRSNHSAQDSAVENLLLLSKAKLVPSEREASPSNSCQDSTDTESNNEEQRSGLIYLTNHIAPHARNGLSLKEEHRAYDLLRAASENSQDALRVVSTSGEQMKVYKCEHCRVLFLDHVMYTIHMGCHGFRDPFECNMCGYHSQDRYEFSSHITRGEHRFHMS
# Chain of IKZF1 (Q96SW2 whole entry): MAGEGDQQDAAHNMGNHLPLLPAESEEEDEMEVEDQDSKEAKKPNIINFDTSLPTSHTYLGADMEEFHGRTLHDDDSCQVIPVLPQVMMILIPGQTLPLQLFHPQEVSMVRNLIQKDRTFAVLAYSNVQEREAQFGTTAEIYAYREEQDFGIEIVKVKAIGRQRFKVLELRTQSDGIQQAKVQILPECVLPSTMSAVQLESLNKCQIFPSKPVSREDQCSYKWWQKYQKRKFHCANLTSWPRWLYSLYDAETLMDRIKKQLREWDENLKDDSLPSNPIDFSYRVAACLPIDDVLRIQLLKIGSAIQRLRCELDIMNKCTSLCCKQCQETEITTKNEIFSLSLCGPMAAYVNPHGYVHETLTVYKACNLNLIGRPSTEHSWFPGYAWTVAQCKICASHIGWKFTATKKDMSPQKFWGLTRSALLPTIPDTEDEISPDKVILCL
# Chain of IKZF1 (Q16531 whole entry partner): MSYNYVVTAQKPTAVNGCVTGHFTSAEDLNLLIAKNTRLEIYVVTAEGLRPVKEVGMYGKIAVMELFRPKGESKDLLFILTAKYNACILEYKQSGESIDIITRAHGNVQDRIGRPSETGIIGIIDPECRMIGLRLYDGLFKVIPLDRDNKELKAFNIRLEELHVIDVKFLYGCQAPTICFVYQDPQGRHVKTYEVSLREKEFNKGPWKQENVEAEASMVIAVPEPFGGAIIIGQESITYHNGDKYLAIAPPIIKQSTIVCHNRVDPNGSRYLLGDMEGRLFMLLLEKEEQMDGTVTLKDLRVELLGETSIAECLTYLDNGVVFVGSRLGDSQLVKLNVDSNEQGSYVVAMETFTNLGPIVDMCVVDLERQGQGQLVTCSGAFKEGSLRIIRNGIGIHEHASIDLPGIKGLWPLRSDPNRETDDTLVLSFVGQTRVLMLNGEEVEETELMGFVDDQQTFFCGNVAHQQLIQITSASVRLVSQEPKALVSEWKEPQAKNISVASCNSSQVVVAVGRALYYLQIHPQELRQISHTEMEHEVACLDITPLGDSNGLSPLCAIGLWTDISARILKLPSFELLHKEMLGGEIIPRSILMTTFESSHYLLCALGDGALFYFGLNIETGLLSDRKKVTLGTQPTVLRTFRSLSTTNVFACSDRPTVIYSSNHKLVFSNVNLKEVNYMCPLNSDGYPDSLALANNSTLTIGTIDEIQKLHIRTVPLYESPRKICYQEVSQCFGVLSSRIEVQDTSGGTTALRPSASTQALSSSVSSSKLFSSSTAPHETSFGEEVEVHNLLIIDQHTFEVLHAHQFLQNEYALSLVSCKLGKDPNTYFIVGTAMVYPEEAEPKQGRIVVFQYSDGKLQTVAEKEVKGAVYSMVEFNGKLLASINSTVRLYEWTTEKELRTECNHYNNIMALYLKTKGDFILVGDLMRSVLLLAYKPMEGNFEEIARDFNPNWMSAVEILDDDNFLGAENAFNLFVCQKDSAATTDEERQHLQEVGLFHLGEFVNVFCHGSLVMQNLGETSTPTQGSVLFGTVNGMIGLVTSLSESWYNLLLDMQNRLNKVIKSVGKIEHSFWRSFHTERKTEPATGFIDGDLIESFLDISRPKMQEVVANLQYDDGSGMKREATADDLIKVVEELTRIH
# Chain of IKZF2 (Q9UKS7 whole entry): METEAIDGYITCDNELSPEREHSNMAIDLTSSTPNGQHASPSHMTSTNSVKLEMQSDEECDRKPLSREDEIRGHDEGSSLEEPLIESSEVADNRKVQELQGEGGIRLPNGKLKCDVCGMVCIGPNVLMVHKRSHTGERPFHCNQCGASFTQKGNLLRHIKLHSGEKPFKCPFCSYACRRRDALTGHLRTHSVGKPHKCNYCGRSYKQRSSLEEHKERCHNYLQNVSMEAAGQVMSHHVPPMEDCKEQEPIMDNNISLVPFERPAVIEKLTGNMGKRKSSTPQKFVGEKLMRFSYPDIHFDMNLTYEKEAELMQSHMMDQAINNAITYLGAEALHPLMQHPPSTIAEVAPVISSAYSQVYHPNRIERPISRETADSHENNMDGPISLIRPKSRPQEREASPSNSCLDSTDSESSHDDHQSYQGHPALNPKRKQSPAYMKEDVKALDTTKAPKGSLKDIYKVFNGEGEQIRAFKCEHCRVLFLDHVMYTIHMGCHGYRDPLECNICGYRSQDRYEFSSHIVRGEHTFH
# Chain of IKZF2 (Q96SW2 whole entry): as the sequence (Q96SW2 whole entry) above
# Chain of IKZF2 (Q16531 whole entry partner): as the sequence (Q16531 whole entry partner) above
inhibition at 10 µM [1],DC50 [1],DC50 [2],IKZF2 protein levels as compared to the control (DMSO) [1],SMILES
75%,33 nM,> 30000 nM,–,"O=C1CCC(N2Cc3cc(C4CCN(Cc5cc(-c6ccccn6)n[nH]5)CC4)ccc3C2=O)C(=O)N1 (centres unmarked) [Compound I-201, 3-(1-oxo-5-(1-((3-(pyridin-2-yl)-1H-pyrazol-5-yl)methyl)piperidin-4-yl)isoindolin-2-yl)piperidine-2,6-dione]"
0%,> 50000 nM,> 50000 nM,–,"O=C1CCC(N2Cc3cc(C4CCN(Cc5ncon5)CC4)ccc3C2=O)C(=O)N1 (centres unmarked) [Compound I-204, 3-(5-(1-((1,2,4-oxadiazol-3-yl)methyl)piperidin-4-yl)-1-oxoisoindolin-2-yl)piperidine-2,6-dione]"
60%,1500 nM,> 30000 nM,–,"Cc1cc2nc(CN3CCC(c4ccc5c(c4)CN(C4CCC(=O)NC4=O)C5=O)CC3)cc(O)n2n1 (centres unmarked) [Compound I-208, 3-(5-(1-((7-hydroxy-2-methylpyrazolo[1,5-a]pyrimidin-5-yl)methyl)piperidin-4-yl)-1-oxoisoindolin-2-yl)piperidine-2,6-dione]"
40%,140 nM,> 30000 nM,–,"O=C1CCC(N2Cc3cc(C4CCN(C(c5ccccc5)C(F)F)CC4)ccc3C2=O)C(=O)N1 (centres unmarked) [Compound I-209, 3-(5-(1-(2,2-difluoro-1-phenylethyl)piperidin-4-yl)-1-oxoisoindolin-2-yl)piperidine-2,6-dione]"
60%,49 nM,> 30000 nM,–,"O=C1CCC(N2Cc3cc(C4CCN(C(CF)c5ccccc5)CC4)ccc3C2=O)C(=O)N1 (centres unmarked) [Compound I-212, 3-(5-(1-(2-fluoro-1-phenylethyl)piperidin-4-yl)-1-oxoisoindolin-2-yl)piperidine-2,6-dione]"
50%,19 nM,> 30000 nM,–,"O=C1CCC(N2Cc3cc(C4CCN(Cc5cc(C(F)(F)F)cc(C(F)(F)F)c5)CC4)ccc3C2=O)C(=O)N1 (centres unmarked) [Compound I-215, 3-(5-(1-(3,5-bis(trifluoromethyl)benzyl)piperidin-4-yl)-1-oxoisoindolin-2-yl)piperidine-2,6-dione]"
40%,8 nM,> 30000 nM,–,"N#Cc1cccc(CN2CCC(c3ccc4c(c3)CN(C3CCC(=O)NC3=O)C4=O)CC2)n1 (centres unmarked) [Compound I-217, 6-((4-(2-(2,6-dioxopiperidin-3-yl)-1-oxoisoindolin-5-yl)piperidin-1-yl)methyl)picolinonitrile]"
60%,4 nM,> 30000 nM,–,"N#CCOc1ccc(CN2CCC(c3ccc4c(c3)CN(C3CCC(=O)NC3=O)C4=O)CC2)cc1 (centres unmarked) [Compound I-218, 2-(4-((4-(2-(2,6-dioxopiperidin-3-yl)-1-oxoisoindolin-5-yl)piperidin-1-yl)methyl)phenoxy)acetonitrile]"
80%,11 nM,> 25000 nM,decreased,"O=C1CCC(N2Cc3cc(C4CCN(Cc5ccc6[nH]ncc6c5)CC4)ccc3C2=O)C(=O)N1 (centres unmarked) [Compound I-219, 3-(5-(1-((1H-indazol-5-yl)methyl)piperidin-4-yl)-1-oxoisoindolin-2-yl)piperidine-2,6-dione]"
30%,36 nM,> 50000 nM,–,"Cc1ccc2nc(CN3CCC(c4ccc5c(c4)CN(C4CCC(=O)NC4=O)C5=O)CC3)cc(=O)n2c1 (centres unmarked) [Compound I-221, 3-(5-(1-((7-methyl-4-oxo-4H-pyrido[1,2-a]pyrimidin-2-yl)methyl)piperidin-4-yl)-1-oxoisoindolin-2-yl)piperidine-2,6-dione]"
0%,> 50000 nM,> 50000 nM,–,"O=C1CCC(N2Cc3cc(C4CCN(C(c5ccccc5)C(F)(F)F)CC4)ccc3C2=O)C(=O)N1 (centres unmarked) [Compound I-224, 3-(1-oxo-5-(1-(2,2,2-trifluoro-1-phenylethyl)piperidin-4-yl)isoindolin-2-yl)piperidine-2,6-dione HC(O)OH salt]"
50%,10 nM,> 25000 nM,–,"O=C1CCC(N2Cc3cc(C4CCN(Cc5nccc6ccccc56)CC4)ccc3C2=O)C(=O)N1 (centres unmarked) [Compound I-226, 3-(5-(1-(isoquinolin-1-ylmethyl)piperidin-4-yl)-1-oxoisoindolin-2-yl)piperidine-2,6-dione]"
60%,4 nM,> 30000 nM,–,"COC1CCN(c2ccc(CN3CCC(c4ccc5c(c4)CN(C4CCC(=O)NC4=O)C5=O)CC3)cc2)CC1 (centres unmarked) [Compound I-227, 3-(5-(1-(4-(4-methoxypiperidin-1-yl)benzyl)piperidin-4-yl)-1-oxoisoindolin-2-yl)piperidine-2,6-dione]"
70%,10 nM,> 30000 nM,–,"CC(C)Sc1ccc(CN2CCC(c3ccc4c(c3)CN(C3CCC(=O)NC3=O)C4=O)CC2)cc1 (centres unmarked) [Compound I-228, 3-(5-(1-(4-(isopropylthio)benzyl)piperidin-4-yl)-1-oxoisoindolin-2-yl)piperidine-2,6-dione]"
60%,250 nM,> 30000 nM,–,"O=C(O)Cc1ccc(CN2CCC(c3ccc4c(c3)CN(C3CCC(=O)NC3=O)C4=O)CC2)cc1 (centres unmarked) [Compound I-231, 2-(4-((4-(2-(2,6-dioxopiperidin-3-yl)-1-oxoisoindolin-5-yl)piperidin-1-yl)methyl)phenyl)acetic acid]"
50%,120 nM,> 30000 nM,–,"Nc1nc(C(F)(F)F)c(CN2CCC(c3ccc4c(c3)CN(C3CCC(=O)NC3=O)C4=O)CC2)s1 (centres unmarked) [Compound I-234, 3-(5-(1-((2-amino-4-(trifluoromethyl)thiazol-5-yl)methyl)piperidin-4-yl)-1-oxoisoindolin-2-yl)piperidine-2,6-dione]"
40%,2440 nM,> 30000 nM,–,"NC(=O)c1nc(CN2CCC(c3ccc4c(c3)CN(C3CCC(=O)NC3=O)C4=O)CC2)no1 (centres unmarked) [Compound I-235, 3-((4-(2-(2,6-dioxopiperidin-3-yl)-1-oxoisoindolin-5-yl)piperidin-1-yl)methyl)-1,2,4-oxadiazole-5-carboxamide]"
80%,3 nM,> 25000 nM,decreased,"O=C1CCC(N2Cc3cc(C4CCN(Cc5cccc(S(=O)(=O)N6CCOCC6)c5)CC4)ccc3C2=O)C(=O)N1 (centres unmarked) [Compound I-236, 3-(5-(1-(3-(morpholinosulfonyl)benzyl)piperidin-4-yl)-1-oxoisoindolin-2-yl)piperidine-2,6-dione]"
60%,110 nM,> 25000 nM,–,"O=C1CCC(N2Cc3cc(C4CCN(Cc5cscn5)CC4)ccc3C2=O)C(=O)N1 (centres unmarked) [Compound I-238, 3-(1-oxo-5-(1-(thiazol-4-ylmethyl)piperidin-4-yl)isoindolin-2-yl)piperidine-2,6-dione]"
5%,> 30000 nM,> 30000 nM,–,"CC(C)(C)c1ccc(C(=O)N2CCC(c3ccc4c(c3)CN(C3CCC(=O)NC3=O)C4=O)CC2)cc1 (centres unmarked) [Compound I-242, 3-(5-(1-(4-(tert-butyl)benzoyl)piperidin-4-yl)-1-oxoisoindolin-2-yl)piperidine-2,6-dione]"
75%,91 nM,> 30000 nM,–,"O=C1CCC(N2Cc3cc(C4CCN(Cc5ccc(OCc6ccc(F)cc6)cc5)CC4)ccc3C2=O)C(=O)N1 (centres unmarked) [Compound I-244, 3-(5-(1-(4-((4-fluorobenzyl)oxy)benzyl)piperidin-4-yl)-1-oxoisoindolin-2-yl)piperidine-2,6-dione]"
40%,37 nM,> 50000 nM,–,"Cc1cc(CN2CCC(c3ccc4c(c3)CN(C3CCC(=O)NC3=O)C4=O)CC2)on1 (centres unmarked) [Compound I-245, 3-(5-(1-((3-methylisoxazol-5-yl)methyl)piperidin-4-yl)-1-oxoisoindolin-2-yl)piperidine-2,6-dione]"
40%,12 nM,> 50000 nM,–,"O=C1CCC(N2Cc3cc(C4CCN(Cc5ccon5)CC4)ccc3C2=O)C(=O)N1 (centres unmarked) [Compound I-246, 3-(5-(1-(isoxazol-3-ylmethyl)piperidin-4-yl)-1-oxoisoindolin-2-yl)piperidine-2,6-dione]"
70%,16 nM,> 30000 nM,–,"COCc1ccc(CN2CCC(c3ccc4c(c3)CN(C3CCC(=O)NC3=O)C4=O)CC2)cc1 (centres unmarked) [Compound I-248, 3-(5-(1-(4-(methoxymethyl)benzyl)piperidin-4-yl)-1-oxoisoindolin-2-yl)piperidine-2,6-dione]"
75%,30 nM,> 30000 nM,–,"O=C1CCC(N2Cc3cc(C4CCN(Cc5ccc(S(=O)(=O)C(F)F)cc5)CC4)ccc3C2=O)C(=O)N1 (centres unmarked) [Compound I-252, 3-(5-(1-(4-((difluoromethyl)sulfonyl)benzyl)piperidin-4-yl)-1-oxoisoindolin-2-yl)piperidine-2,6-dione]"
40%,680 nM,> 30000 nM,–,"COC(=O)c1coc(CN2CCC(c3ccc4c(c3)CN(C3CCC(=O)NC3=O)C4=O)CC2)n1 (centres unmarked) [Compound I-254, methyl 2-((4-(2-(2,6-dioxopiperidin-3-yl)-1-oxoisoindolin-5-yl)piperidin-1-yl)methyl)oxazole-4-carboxylate]"
60%,49 nM,> 30000 nM,–,"O=C1CCC(N2Cc3cc(C4CCN(Cc5ccc(OCc6ccccn6)cc5)CC4)ccc3C2=O)C(=O)N1 (centres unmarked) [Compound I-255, 3-(1-oxo-5-(1-(4-(pyridin-2-ylmethoxy)benzyl)piperidin-4-yl)isoindolin-2-yl)piperidine-2,6-dione]"
60%,1300 nM,> 30000 nM,–,"O=C1CCC(N2Cc3cc(C4CCN(Cc5ccc6[nH]c(=O)[nH]c6c5)CC4)ccc3C2=O)C(=O)N1 (centres unmarked) [Compound I-259, 3-(1-oxo-5-(1-((2-oxo-2,3-dihydro-1H-benzo[d]imidazol-5-yl)methyl)piperidin-4-yl)isoindolin-2-yl)piperidine-2,6-dione]"
